ChEMBL document CHEMBL1133194, “Synthesis and bioactivities of novel piperidylpyrimidine derivatives: inhibitors of tumor necrosis factor-alpha production” (Bioorg Med Chem Lett, 2000)

Species on record: Mus musculus
Assay: Ability to inhibit tumor necrosis factor-alpha (TNF-alpha) production in mouse macrophages stimulated with LPS
Type: functional

| SMILES | IC50 |
| --- | --- |
| Nc1nc(N2CCCCC2)c2ccccc2n1 | > 100000 nM |
| O=C(c1ccccc1)N1CCC(c2ncnc3ccccc23)CC1 | 1400 nM |
| Nc1nc(C2CCN(C(=O)Cc3ccccc3)CC2)c2ccccc2n1 | 2000 nM |
| CN1CCC(c2nc(N)nc3ccccc23)CC1 | > 100000 nM |
| COc1ccc(Cc2cc(C3CCN(C(=O)c4ccc(Cl)c(Cl)c4)CC3)nc(N)n2)cc1 | 700 nM |
| Cc1cc(C2CCN(C(=O)c3ccccc3)CC2)nc(N)n1 | 9000 nM |
| COc1ccc(Cc2cc(C3CCN(C(=O)Cc4ccc(Cl)c(Cl)c4)CC3)nc(N)n2)cc1 | 2100 nM |
| COc1ccc(Cc2cc(C3CCN(C(=O)c4cccc(OC)c4)CC3)nc(N)n2)cc1 | 1200 nM |
| COc1ccc(Cc2cc(C3CCN(C(=O)Cc4ccc(Cl)cc4)CC3)nc(N)n2)cc1 | 2400 nM |
| Nc1nc(C2CCN(C(=O)CCc3ccccc3)CC2)c2ccccc2n1 | 6300 nM |
| Nc1nc(C2CCN(C3CCCCC3)CC2)c2ccccc2n1 | 53000 nM |
| Nc1nc(C2CCN(Cc3ccccc3)CC2)c2ccccc2n1 | 16000 nM |
| Nc1nc(Nc2ccccc2)c2ccccc2n1 | > 100000 nM |
| CCCCCCCC(=O)N1CCC(c2cc(Cc3ccc(OC)cc3)nc(N)n2)CC1 | 1900 nM |
| COc1ccc(Cc2cc(C3CCN(C(=O)c4cc(OC)cc(OC)c4)CC3)nc(N)n2)cc1 | 1000 nM |
| Nc1nc(C2CCNCC2)c2ccccc2n1 | 51000 nM |
| COc1ccc(Cc2cc(C3CCN(C(=O)Cc4ccc(OC)c(OC)c4)CC3)nc(N)n2)cc1 | 1200 nM |
| COc1ccc(Cc2cc(C3CCN(C(=O)c4ccc5c(c4)OCO5)CC3)nc(N)n2)cc1 | 600 nM |
| O=C(c1ccccc1)N1CCC(c2nc(Cl)nc3ccccc23)CC1 | 1400 nM |
| COc1ccc(CC(=O)N2CCC(c3cc(Cc4ccc(OC)cc4)nc(N)n3)CC2)cc1 | 1700 nM |
| CC(=O)N1CCC(c2nc(N)nc3ccccc23)CC1 | 3600 nM |
| Nc1nc(C2CCN(CCc3ccccc3)CC2)c2ccccc2n1 | > 100000 nM |
| O=C(c1ccccc1)N1CCC(c2nc(O)nc3ccccc23)CC1 | 20000 nM |

| SMILES | IC50 |
| --- | --- |
| COc1ccc(Cc2cc(C3CCN(C(=O)c4cccc(OC)c4OC)CC3)nc(N)n2)cc1 | 900 nM |
| COc1ccc(Cc2cc(C3CCN(C(=O)C(C)(C)C)CC3)nc(N)n2)cc1 | 5600 nM |
| COc1ccc(Cc2cc(C3CCN(C(=O)c4ccc([N+](=O)[O-])cc4)CC3)nc(N)n2)cc1 | 700 nM |
| COc1ccc(Cc2cc(C3CCN(C(=O)c4ccccc4OC)CC3)nc(N)n2)cc1 | 3600 nM |
| Nc1nc(C2CCN(C(=O)c3ccccc3)CC2)c2ccccc2n1 | 1400 nM |
| COc1ccc(Cc2cc(C3CCN(C(=O)c4ccccc4)CC3)nc(N)n2)cc1 | 1400 nM |
| COc1ccc(Cc2cc(C3CCN(C(=O)Cc4ccccc4)CC3)nc(N)n2)cc1 | 2100 nM |
| COc1ccc(Cc2cc(C3CCN(C(=O)Cc4ccc5c(c4)OCO5)CC3)nc(N)n2)cc1 | 1800 nM |
| Nc1nc(C2CCN(C(=O)c3ccc4c(c3)OCO4)CC2)c2ccccc2n1 | 4500 nM |
| CCCCC(=O)N1CCC(c2nc(N)nc3ccccc23)CC1 | 3000 nM |
| CCC(=O)N1CCC(c2cc(Cc3ccc(OC)cc3)nc(N)n2)CC1 | 4900 nM |
| COc1ccc(-c2c(C)nc(N)nc2C2CCN(C(=O)c3ccccc3)CC2)cc1 | 9700 nM |
| CCCC(=O)N1CCC(c2cc(Cc3ccc(OC)cc3)nc(N)n2)CC1 | 7200 nM |
| COc1ccc(Cc2cc(C3CCN(C(C)=O)CC3)nc(N)n2)cc1 | 6100 nM |
| CN1CCN(c2nc(N)nc3ccccc23)CC1 | > 100000 nM |
| COc1ccc(Cc2cc(C3CCN(C(=O)c4ccc(OC)c(OC)c4)CC3)nc(N)n2)cc1 | 900 nM |
| COc1ccc(Cc2cc(C3CCN(C(=O)c4ccccc4[N+](=O)[O-])CC3)nc(N)n2)cc1 | 1700 nM |
| COc1ccc(Cc2cc(C3CCN(C(=O)c4ccc(OC)cc4)CC3)nc(N)n2)cc1 | 500 nM |
| COc1ccc(Cc2cc(C3CCN(C(=O)c4cccc([N+](=O)[O-])c4)CC3)nc(N)n2)cc1 | 800 nM |
| COc1ccc(Cc2cc(C3CCN(C(=O)c4ccc(Cl)cc4)CC3)nc(N)n2)cc1 | 600 nM |
| Nc1nc(-c2ccccc2)cc(C2CCN(C(=O)c3ccccc3)CC2)n1 | 5100 nM |
| Nc1nc(C2CCN(C(=O)C3CCCCC3)CC2)c2ccccc2n1 | 2500 nM |
| CCCCCC(=O)N1CCC(c2cc(Cc3ccc(OC)cc3)nc(N)n2)CC1 | 1500 nM |
